Results as given in US20050070510A1, “Substituted tetracycline compounds as synergistic antifungal agents” (Paratek Pharmaceuticals, Inc., priority 2001, published 2005).

What follows are molecules tested on COS-1 cells (assay: In vitro mammalian cytotoxicity assay (Resazurin)).

Which “In Vitro Cytotoxicity” value does the source give for `CN(C)[C@@H]1C(O)=C(C(N)=O)C(=O)[C@@]2(C#N)C(O)=C3C(=O)c4c(O)ccc(-c5ccccc5)c4C[C@@]3(N)C[C@@]12N` [CX] here?
The value was “* (toxicities greater than >25 μg/ml are represented by *)”.

`Cc1ccc(/C=C2\c3cccc(O)c3C(=O)C3=C(O)[C@]4(C#N)C(=O)C(C(N)=O)=C(O)[C@@H](N(C)C)[C@]4(O)[C@@H](O)[C@@]32N)cc1` [CY] was tested. Which “In Vitro Cytotoxicity” value did it give?
The value was “** (toxicities less than 25 μg/mL are represented by **)”.

How did the “In Vitro Cytotoxicity” value turn out when `CN(C)[C@@H]1C(O)=C(C(N)=O)C(=O)[C@@]2(C#N)C(O)=C3C(=O)c4c(O)cccc4C(N)[C@@]3(N)[C@H](O)[C@@]12N` (stereo partly drawn) [CZ] was run?
Its value is “** (toxicities less than 25 μg/mL are represented by **)”.

`CC#Cc1ccc(O)c2c1CC1CC3[C@H](N(C)C)C(O)=C(C(N)=O)C(=O)[C@@]3(O)C(O)=C1C2=O` (stereo partly drawn) [Compound HC, 7-(Propynyl)-Sancycline] was tested. Which “In Vitro Cytotoxicity” value did it give?
Its value is “** (toxicities less than 25 μg/mL are represented by **)”.

For `Cc1ccc(CCc2ccc(O)c3c2CC2CC4[C@H](N(C)C)C(O)=C(C(N)=O)C(=O)[C@@]4(O)C(O)=C2C3=O)cc1` (stereo partly drawn) [Compound HG], which “In Vitro Cytotoxicity” value is on record?
Its value is “** (toxicities less than 25 μg/mL are represented by **)”.

How did the “In Vitro Cytotoxicity” value turn out when `CC(=O)c1ccc(-c2cc(N(C)C)c3c(c2O)C(=O)C2=C(O)[C@]4(C#N)C(=O)C(C(N)=O)=C(O)[C@@H](N(C)C)[C@]4(N)C[C@]2(N)C3)cc1` [Compound HJ, 9-(4′-Acetylphenyl) Minocycline] was run?
Its value is “** (toxicities less than 25 μg/mL are represented by **)”.

With `CN(C)[C@@H]1C(O)=C(C(N)=O)C(=O)[C@@]2(C#N)C(O)=C3C(=O)c4c(O)ccc(C#CCCCCC#Cc5ccc(O)c6c5C[C@@]5(N)C[C@@]7(N)[C@H](N(C)C)C(O)=C(C(N)=O)C(=O)[C@@]7(C#N)C(O)=C5C6=O)c4C[C@@]3(N)C[C@@]12N` [Compound NB, 1,8-Di-7-Sancyclinyl-1,8-Heptyne] as the molecule, how does the “In Vitro Cytotoxicity” value read?
Its value is “* (toxicities greater than >25 μg/ml are represented by *)”.

For `COC(=O)c1cc(N(C)C)c2c(c1O)C(=O)C1=C(O)[C@]3(C#N)C(=O)C(C(N)=O)=C(O)[C@@H](N(C)C)[C@]3(N)C[C@]1(N)C2` [Compound TC, 9-Minocycline methyl ester], which “In Vitro Cytotoxicity” value is on record?
Its value is “* (toxicities greater than >25 μg/ml are represented by *)”.

How did the “In Vitro Cytotoxicity” value turn out when `CN(C)c1cc(-c2ccc(CN3CCN(CCO)CC3)o2)c(O)c2c1C[C@H]1C[C@H]3[C@H](N(C)C)C(O)=C(C(N)=O)C(=O)[C@@]3(O)C(O)=C1C2=O` [Compound UC, 2-[4-(5-Minocyclin-9-yl-furan-2-ylmethyl)-piperazin-1-yl]-ethanol] was run?
The value was “* (toxicities greater than >25 μg/ml are represented by *)”.

`CN(C)[C@@H]1C(O)=C(C(=O)NC(C)(C)C)C(=O)[C@@]2(C#N)C(O)=C3C(=O)c4c(O)cccc4C(N)[C@@]3(N)[C@H](O)[C@@]12N` (stereo partly drawn) [DA] was tested. Which “In Vitro Cytotoxicity” value did it give?
The value was “* (toxicities greater than >25 μg/ml are represented by *)”.

Which “In Vitro Cytotoxicity” value does the source give for `CC(=O)O[C@H]1[C@@]2(N)C(=C(O)[C@]3(C#N)C(=O)C(C(N)=O)=C(O)[C@@H](N(C)C)[C@]13N)C(=O)c1c(ccc(N=[N+]=N)c1O)[C@@H]2N` [DB] here?
Its value is “** (toxicities less than 25 μg/mL are represented by **)”.

Which “In Vitro Cytotoxicity” value does the source give for `CN(C)[C@@H]1C(O)=C(C(N)=O)C(=O)[C@@]2(C#N)C(O)=C3C(=O)c4c(ccc(NC=O)c4O)C(N)[C@@]3(N)[C@H](O)[C@@]12N` (stereo partly drawn) [DC] here?
Its value is “** (toxicities less than 25 μg/mL are represented by **)”.

How did the “In Vitro Cytotoxicity” value turn out when `CN(C)[C@@H]1C(O)=C(C(N)=O)C(=O)[C@@]2(C#N)C(O)=C3C(=O)c4c(ccc(NC(=O)OCCBr)c4O)[C@H](N)[C@@]3(N)[C@H](O)[C@@]12N` [DD] was run?
The value was “** (toxicities less than 25 μg/mL are represented by **)”.

With `CC(=O)c1ccc(/C=C2\c3cccc(O)c3C(=O)C3=C(O)[C@]4(C#N)C(=O)C(C(N)=O)=C(O)[C@@H](N(C)C)[C@]4(N)[C@@H](O)[C@@]32N)cc1` [DE] as the molecule, how does the “In Vitro Cytotoxicity” value read?
The value was “** (toxicities less than 25 μg/mL are represented by **)”.

Which “In Vitro Cytotoxicity” value does the source give for `CCOc1ccc(/C=C2\c3cccc(O)c3C(=O)C3=C(O)[C@]4(C#N)C(=O)C(C(N)=O)=C(O)[C@@H](N(C)C)[C@]4(N)[C@@H](O)[C@@]32N)cc1` [DF] here?
The value was “** (toxicities less than 25 μg/mL are represented by **)”.

How did the “In Vitro Cytotoxicity” value turn out when `CN(C)c1cc(NC(=O)OCC(C)(C)C)c(O)c2c1C[C@@]1(N)C[C@@]3(N)[C@H](N(C)C)C(O)=C(C(N)=O)C(=O)[C@@]3(C#N)C(O)=C1C2=O` [DG] was run?
The value was “** (toxicities less than 25 μg/mL are represented by **)”.

For `CN(C)[C@@H]1C(O)=C(C(N)=O)C(=O)[C@@]2(C#N)C(O)=C3C(=O)c4c(O)cccc4[C@H](CSCc4ccccc4)[C@@]3(N)[C@H](O)[C@@]12N` [DH], which “In Vitro Cytotoxicity” value is on record?
Its value is “** (toxicities less than 25 μg/mL are represented by **)”.

`C#Cc1cc(N(C)C)c2c(c1O)C(=O)C1=C(O)[C@]3(C#N)C(=O)C(C(N)=O)=C(O)[C@@H](N(C)C)[C@]3(N)C[C@]1(N)C2` [DI] was tested. Which “In Vitro Cytotoxicity” value did it give?
The value was “** (toxicities less than 25 μg/mL are represented by **)”.

`CCOC(=O)C(C)(/N=N/c1ccc2c(c1O)C(=O)C1=C(O)[C@]3(C#N)C(=O)C(C(N)=O)=C(O)[C@@H](N(C)C)[C@]3(N)[C@@H](O)[C@]1(N)[C@H]2N)C(=O)OCC` [DK] was tested. Which “In Vitro Cytotoxicity” value did it give?
Its value is “** (toxicities less than 25 μg/mL are represented by **)”.

How did the “In Vitro Cytotoxicity” value turn out when `CCCCOc1ccc(O)c2c1C[C@@]1(N)C[C@@]3(N)[C@H](N(C)C)C(O)=C(C(N)=O)C(=O)[C@@]3(C#N)C(O)=C1C2=O` [DL] was run?
Its value is “** (toxicities less than 25 μg/mL are represented by **)”.

How did the “In Vitro Cytotoxicity” value turn out when `CN(C)[C@@H]1C(O)=C(C(N)=O)C(=O)[C@@]2(C#N)C(O)=C3C(=O)c4c(O)ccc(-c5ccc(Cl)cc5)c4C[C@@]3(N)C[C@@]12N` [DM] was run?
The value was “** (toxicities less than 25 μg/mL are represented by **)”.

For `CN(C)c1cc(NC(=O)OC(C)(C)C)c(O)c2c1C[C@@]1(N)C[C@@]3(N)[C@H](N(C)C)C(O)=C(C(N)=O)C(=O)[C@@]3(C#N)C(O)=C1C2=O` [DN], which “In Vitro Cytotoxicity” value is on record?
Its value is “** (toxicities less than 25 μg/mL are represented by **)”.

For `CN(C)c1cc(C2C=CCC2)c(O)c2c1C[C@@]1(N)C[C@@]3(N)[C@H](N(C)C)C(O)=C(C(N)=O)C(=O)[C@@]3(C#N)C(O)=C1C2=O` (stereo partly drawn) [DO], which “In Vitro Cytotoxicity” value is on record?
Its value is “** (toxicities less than 25 μg/mL are represented by **)”.

How did the “In Vitro Cytotoxicity” value turn out when `CN(C)[C@@H]1C(O)=C(C(N)=O)C(=O)[C@@]2(C#N)C(O)=C3C(=O)c4c(O)cccc4/C(=C\c4ccc5ccccc5c4)[C@@]3(N)[C@H](O)[C@@]12N` [DQ] was run?
Its value is “** (toxicities less than 25 μg/mL are represented by **)”.

How did the “In Vitro Cytotoxicity” value turn out when `CN(C)[C@@H]1C(O)=C(C(N)=O)C(=O)[C@@]2(C#N)C(O)=C3C(=O)c4c(O)cccc4/C(=C\c4cc(F)cc(F)c4)[C@@]3(N)[C@H](O)[C@@]12N` [DR] was run?
The value was “* (toxicities greater than >25 μg/ml are represented by *)”.

Which “In Vitro Cytotoxicity” value does the source give for `CN(C)[C@@H]1C(O)=C(C(N)=O)C(=O)[C@@]2(C#N)C(O)=C3C(=O)c4c(O)cccc4/C(=C\c4ccc(F)cc4)[C@@]3(N)[C@H](O)[C@@]12N` [DS] here?
Its value is “** (toxicities less than 25 μg/mL are represented by **)”.

For `CN(C)[C@@H]1C(O)=C(C(N)=O)C(=O)[C@@]2(C#N)C(O)=C3C(=O)c4c(ccc(Nc5ccc(-c6ccccc6)s5)c4O)[C@H](N)[C@@]3(N)[C@H](O)[C@@]12N` [DT], which “In Vitro Cytotoxicity” value is on record?
Its value is “** (toxicities less than 25 μg/mL are represented by **)”.
